The target of one test is T1, mfT1R2b/mfT1R3 (Oryzias latipes, UniProt Q2MHK2+Q2MHK4).
T1 construct: gene TAS1R2b; entire coding regions, stably co-expressed with chimeric G-protein G16gust44 in Flp-In 293 cells; heterodimer; with Taste receptor type 1 member 3
Briefly: FLIPR Calcium […] cell-based calcium assay, FlexStation […].

The next test deals with T2, zfT1R2b/zfT1R3 (Danio rerio, UniProt A4PHQ8+Q2MHK9, Q2MHK9:Y247H).
T2 construct: gene tas1r2.2; entire coding regions, stably co-expressed with chimeric G-protein G16gust44 in Flp-In 293 cells; heterodimer; T1R3 clone Y247H (C741T); with Taste receptor type 1 member 3
T2 sequence (A4PHQ8 18-823): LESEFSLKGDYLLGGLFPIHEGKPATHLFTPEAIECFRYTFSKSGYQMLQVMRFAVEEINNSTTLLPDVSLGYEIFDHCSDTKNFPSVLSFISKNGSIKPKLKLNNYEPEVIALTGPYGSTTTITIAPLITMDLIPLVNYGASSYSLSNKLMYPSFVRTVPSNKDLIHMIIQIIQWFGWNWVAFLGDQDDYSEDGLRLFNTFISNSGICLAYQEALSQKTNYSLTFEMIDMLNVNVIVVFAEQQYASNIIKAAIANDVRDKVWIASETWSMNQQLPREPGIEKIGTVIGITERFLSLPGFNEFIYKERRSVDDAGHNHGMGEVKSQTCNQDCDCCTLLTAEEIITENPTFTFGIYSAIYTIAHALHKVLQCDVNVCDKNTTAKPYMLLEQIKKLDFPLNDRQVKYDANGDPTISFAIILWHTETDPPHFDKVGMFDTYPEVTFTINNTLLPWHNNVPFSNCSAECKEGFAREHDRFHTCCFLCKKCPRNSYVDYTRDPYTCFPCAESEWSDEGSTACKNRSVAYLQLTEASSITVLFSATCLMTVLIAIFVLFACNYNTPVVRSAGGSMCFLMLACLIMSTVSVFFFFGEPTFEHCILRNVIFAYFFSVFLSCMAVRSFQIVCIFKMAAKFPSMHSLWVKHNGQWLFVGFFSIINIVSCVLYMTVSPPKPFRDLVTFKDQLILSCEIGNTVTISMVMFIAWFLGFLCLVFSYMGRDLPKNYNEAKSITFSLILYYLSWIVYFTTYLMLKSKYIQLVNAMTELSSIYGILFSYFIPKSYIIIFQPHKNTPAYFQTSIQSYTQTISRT
T2 sequence (Q2MHK9 25-850 Y247H): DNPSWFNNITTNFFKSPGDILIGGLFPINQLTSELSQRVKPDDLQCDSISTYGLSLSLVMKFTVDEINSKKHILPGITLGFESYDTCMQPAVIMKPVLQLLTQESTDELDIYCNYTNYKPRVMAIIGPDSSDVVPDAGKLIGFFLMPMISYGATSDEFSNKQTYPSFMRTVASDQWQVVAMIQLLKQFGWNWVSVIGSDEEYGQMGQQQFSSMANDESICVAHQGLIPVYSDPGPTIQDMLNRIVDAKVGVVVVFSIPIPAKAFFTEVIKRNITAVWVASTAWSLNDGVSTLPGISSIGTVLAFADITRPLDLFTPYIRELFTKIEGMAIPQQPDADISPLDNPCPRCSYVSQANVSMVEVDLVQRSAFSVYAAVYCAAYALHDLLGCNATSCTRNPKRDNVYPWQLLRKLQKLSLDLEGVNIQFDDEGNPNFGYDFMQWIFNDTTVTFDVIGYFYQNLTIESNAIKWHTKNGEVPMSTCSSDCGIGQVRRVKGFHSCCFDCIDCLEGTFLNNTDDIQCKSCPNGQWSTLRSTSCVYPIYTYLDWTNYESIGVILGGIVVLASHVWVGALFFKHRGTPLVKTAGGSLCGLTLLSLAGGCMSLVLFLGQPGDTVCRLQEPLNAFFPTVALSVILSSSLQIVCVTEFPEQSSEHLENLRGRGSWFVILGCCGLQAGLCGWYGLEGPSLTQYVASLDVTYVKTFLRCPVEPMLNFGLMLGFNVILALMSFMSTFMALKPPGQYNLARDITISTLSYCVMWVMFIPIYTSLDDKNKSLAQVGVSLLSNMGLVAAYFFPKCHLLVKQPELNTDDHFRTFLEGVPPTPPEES
Described as above.

The target in another test is T3, zfT1R2a/zfT1R3 (Danio rerio, UniProt Q2MHK9+Q2MHL1, Q2MHK9:Y247H).
T3 construct: gene tas1r2.1; entire coding regions, stably co-expressed with chimeric G-protein G16gust44 in Flp-In 293 cells; heterodimer; T1R3 clone Y247H (C741T); with Taste receptor type 1 member 3
T3 sequence (Q2MHL1 26-825): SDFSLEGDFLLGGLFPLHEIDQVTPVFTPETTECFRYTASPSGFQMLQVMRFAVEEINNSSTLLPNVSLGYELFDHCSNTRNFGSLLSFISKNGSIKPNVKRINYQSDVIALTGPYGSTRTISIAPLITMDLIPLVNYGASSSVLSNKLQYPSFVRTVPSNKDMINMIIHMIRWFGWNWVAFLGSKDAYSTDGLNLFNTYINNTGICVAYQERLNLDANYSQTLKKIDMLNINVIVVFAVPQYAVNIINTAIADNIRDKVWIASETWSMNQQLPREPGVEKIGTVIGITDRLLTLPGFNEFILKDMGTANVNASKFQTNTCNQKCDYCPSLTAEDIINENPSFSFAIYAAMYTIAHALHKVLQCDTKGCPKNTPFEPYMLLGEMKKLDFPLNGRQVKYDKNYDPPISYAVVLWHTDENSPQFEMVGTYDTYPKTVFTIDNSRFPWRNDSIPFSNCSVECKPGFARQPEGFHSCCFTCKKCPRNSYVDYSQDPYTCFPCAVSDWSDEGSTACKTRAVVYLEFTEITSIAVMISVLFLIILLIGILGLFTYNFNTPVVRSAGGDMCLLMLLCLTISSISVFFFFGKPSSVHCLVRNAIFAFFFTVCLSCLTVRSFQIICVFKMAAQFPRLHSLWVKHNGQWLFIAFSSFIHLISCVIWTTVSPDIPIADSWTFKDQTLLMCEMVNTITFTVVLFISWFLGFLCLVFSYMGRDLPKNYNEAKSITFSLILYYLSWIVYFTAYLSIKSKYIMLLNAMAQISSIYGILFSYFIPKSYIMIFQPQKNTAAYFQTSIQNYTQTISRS
T3 sequence (Q2MHK9 25-850 Y247H): T2 sequence (Q2MHK9 25-850 Y247H)
The description is as above.

For another test, the target named is T4, mfT1R2a/mfT1R3 (Oryzias latipes, UniProt Q2MHK2+Q2MHK5).
T4 construct: gene TAS1R2a; entire coding regions, stably co-expressed with chimeric G-protein G16gust44 in Flp-In 293 cells; heterodimer; with Taste receptor type 1 member 3
The test is described as above.

The next test deals with T5, mfT1R2c/mfT1R3 (Oryzias latipes, UniProt Q2MHK2+Q2MHK3, Q2MHK3:V394L).
T5 construct: gene TAS1R2c
Nature of the test: cell-based.

T1 sequence (Q2MHK4 entry or part of it): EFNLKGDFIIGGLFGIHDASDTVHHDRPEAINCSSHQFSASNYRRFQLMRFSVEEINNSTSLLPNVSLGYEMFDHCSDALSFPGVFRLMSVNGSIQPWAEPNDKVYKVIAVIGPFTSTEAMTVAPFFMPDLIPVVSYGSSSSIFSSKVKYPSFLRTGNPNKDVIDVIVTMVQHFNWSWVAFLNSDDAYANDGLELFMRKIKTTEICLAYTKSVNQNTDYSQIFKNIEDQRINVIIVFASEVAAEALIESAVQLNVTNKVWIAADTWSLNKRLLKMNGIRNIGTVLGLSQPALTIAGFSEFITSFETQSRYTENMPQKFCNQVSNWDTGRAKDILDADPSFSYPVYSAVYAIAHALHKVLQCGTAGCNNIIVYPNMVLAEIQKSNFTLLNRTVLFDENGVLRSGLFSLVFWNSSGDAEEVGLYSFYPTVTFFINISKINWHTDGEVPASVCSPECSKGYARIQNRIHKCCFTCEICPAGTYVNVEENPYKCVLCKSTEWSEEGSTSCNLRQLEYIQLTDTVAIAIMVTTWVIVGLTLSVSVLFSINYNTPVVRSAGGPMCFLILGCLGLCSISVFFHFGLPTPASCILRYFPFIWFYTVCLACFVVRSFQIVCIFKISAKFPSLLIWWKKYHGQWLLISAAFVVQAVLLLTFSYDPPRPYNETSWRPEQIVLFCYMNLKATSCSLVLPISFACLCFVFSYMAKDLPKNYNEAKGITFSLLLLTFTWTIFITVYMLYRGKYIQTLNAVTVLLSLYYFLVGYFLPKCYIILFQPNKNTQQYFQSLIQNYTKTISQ
T1 sequence (Q2MHK2 entry or part of it): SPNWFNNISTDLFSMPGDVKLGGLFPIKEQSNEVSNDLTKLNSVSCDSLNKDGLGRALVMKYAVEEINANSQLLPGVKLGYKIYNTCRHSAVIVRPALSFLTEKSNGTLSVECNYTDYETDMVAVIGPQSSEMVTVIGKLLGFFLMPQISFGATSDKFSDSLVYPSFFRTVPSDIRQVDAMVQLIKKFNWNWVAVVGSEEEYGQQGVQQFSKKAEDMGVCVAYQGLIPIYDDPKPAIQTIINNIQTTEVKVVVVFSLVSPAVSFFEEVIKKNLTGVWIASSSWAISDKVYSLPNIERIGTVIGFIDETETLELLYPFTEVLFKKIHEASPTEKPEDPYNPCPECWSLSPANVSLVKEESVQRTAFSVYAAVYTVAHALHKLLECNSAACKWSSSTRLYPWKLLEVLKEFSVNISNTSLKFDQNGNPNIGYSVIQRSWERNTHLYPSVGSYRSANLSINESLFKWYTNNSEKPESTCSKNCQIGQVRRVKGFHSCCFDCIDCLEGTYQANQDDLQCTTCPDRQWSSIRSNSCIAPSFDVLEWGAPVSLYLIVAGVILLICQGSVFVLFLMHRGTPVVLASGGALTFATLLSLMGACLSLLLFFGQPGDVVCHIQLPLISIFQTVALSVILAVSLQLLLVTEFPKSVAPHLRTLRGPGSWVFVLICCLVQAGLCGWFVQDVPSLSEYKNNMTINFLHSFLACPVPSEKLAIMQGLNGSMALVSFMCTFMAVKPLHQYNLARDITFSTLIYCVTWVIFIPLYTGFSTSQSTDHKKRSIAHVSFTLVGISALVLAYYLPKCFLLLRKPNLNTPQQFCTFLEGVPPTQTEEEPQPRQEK
T4 sequence (Q2MHK2 entry or part of it): as above
T4 sequence (Q2MHK5 entry or part of it): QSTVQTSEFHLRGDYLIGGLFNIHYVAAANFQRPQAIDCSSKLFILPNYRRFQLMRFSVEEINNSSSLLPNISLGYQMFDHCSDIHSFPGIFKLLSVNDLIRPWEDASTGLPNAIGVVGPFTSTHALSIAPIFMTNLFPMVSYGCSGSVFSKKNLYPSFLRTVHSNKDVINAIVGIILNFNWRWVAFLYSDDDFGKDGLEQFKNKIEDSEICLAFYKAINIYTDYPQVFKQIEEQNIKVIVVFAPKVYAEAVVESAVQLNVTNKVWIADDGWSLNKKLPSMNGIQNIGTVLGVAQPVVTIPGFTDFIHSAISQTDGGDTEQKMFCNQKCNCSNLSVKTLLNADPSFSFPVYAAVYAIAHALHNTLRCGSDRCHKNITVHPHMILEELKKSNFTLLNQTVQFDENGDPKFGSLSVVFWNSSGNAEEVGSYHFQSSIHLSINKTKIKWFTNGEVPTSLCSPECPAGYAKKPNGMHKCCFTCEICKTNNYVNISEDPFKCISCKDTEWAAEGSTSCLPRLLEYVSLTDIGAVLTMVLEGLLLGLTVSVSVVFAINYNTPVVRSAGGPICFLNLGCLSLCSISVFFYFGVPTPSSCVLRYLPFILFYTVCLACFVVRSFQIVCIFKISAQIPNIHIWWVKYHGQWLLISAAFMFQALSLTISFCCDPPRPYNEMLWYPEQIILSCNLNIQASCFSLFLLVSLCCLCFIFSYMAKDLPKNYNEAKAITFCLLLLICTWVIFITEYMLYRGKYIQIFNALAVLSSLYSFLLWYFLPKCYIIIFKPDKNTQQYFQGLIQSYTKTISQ
T5 sequence (Q2MHK2 entry or part of it): as the sequence (Q2MHK2 entry or part of it) above
T5 sequence (Q2MHK3 entry or part of it V394L): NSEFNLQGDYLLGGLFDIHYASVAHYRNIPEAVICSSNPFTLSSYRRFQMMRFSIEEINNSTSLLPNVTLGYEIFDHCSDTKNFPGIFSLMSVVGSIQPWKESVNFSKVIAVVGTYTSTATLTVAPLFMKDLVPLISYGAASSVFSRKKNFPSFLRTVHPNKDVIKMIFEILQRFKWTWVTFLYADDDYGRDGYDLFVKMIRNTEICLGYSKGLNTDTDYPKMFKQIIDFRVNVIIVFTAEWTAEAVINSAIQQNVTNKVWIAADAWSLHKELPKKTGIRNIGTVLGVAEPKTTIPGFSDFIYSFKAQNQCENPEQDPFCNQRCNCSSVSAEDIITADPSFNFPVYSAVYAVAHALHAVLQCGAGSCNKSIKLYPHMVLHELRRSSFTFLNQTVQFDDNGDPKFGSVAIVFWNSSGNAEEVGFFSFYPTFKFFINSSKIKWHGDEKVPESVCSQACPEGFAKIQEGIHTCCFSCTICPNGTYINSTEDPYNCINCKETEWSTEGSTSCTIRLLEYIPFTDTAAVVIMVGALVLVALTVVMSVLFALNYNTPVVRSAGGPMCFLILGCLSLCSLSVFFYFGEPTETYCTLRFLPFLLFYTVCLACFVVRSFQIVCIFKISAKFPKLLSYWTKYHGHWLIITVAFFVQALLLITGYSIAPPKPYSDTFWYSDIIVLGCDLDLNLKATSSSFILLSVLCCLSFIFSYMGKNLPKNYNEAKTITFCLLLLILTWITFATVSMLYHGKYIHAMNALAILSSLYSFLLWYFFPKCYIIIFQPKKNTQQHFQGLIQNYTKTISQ

Usually EC50 stands for the midpoint of the concentration-response curve. Consider `C[C@H](N)C(=O)O` [L-alanine], for which the EC50 at mfT1R2b/mfT1R3 was 1.75 ± 0.14 mM; at zfT1R2b/zfT1R3, 2.03 ± 0.15 mM; on zfT1R2a/zfT1R3, 0.22 ± 0.018 mM; at mfT1R2a/mfT1R3, 1.23 ± 0.07 mM.
Turning to `NC(=O)CC[C@H](N)C(=O)O` [L-glutamine], the EC50 at mfT1R2a/mfT1R3 was 0.0588 ± 0.0076 mM.
For `O=C(O)[C@@H]1CCCN1` [L-proline], the EC50 on mfT1R2c/mfT1R3 worked out at 0.00443 ± 0.00038 mM; at mfT1R2b/mfT1R3, 3.05 ± 0.22 mM; on zfT1R2b/zfT1R3, 1.72 ± 0.35 mM; at zfT1R2a/zfT1R3 it was 0.164 ± 0.036 mM.

Source of the values: publication PMC9989926, “Zebrafish and medaka T1R (taste receptor type 1) proteins mediate highly sensitive recognition of L‐proline” (FEBS Open Bio, 2023).
